{
  "source": "ChEMBL document CHEMBL4699417",
  "about": "“Leishmania infantum isolates exhibit high infectivity and reduced susceptibility to amphotericin B” (RSC Med Chem, 2020)",
  "key": {"Leishmania infantum [1]": {"test_system": "Leishmania infantum", "experiment": "Antileishmanial activity against promastigote form of Leishmania infantum MCAN_UY_2015_bCH11 isolate assessed as decrease in parasite viability measured after 72 hrs by resazurin assay"}, "Leishmania infantum [2]": {"test_system": "Leishmania infantum", "experiment": "Antileishmanial activity against promastigote form of Leishmania infantum MCAN_UY_2015_bPL7 isolate assessed as decrease in parasite viability measured after 72 hrs by resazurin assay"}, "Leishmania infantum [3]": {"test_system": "Leishmania infantum", "experiment": "Antileishmanial activity against promastigote form of Leishmania infantum MCAN_UY_2015_gPL8 isolate assessed as decrease in parasite viability measured after 72 hrs by resazurin assay"}, "Leishmania infantum [4]": {"test_system": "Leishmania infantum", "experiment": "Antileishmanial activity against promastigote form of Leishmania infantum MCAN_UY_2015_mCO8 isolate assessed as decrease in parasite viability measured after 72 hrs by resazurin assay"}, "Leishmania infantum [5]": {"test_system": "Leishmania infantum", "experiment": "Antileishmanial activity against promastigote form of Leishmania infantum MHOM/BR/2002/LPC-RPV assessed as decrease in parasite viability measured after 72 hrs by resazurin assay"}, "Leishmania infantum [6]": {"test_system": "Leishmania infantum", "experiment": "Antileishmanial activity against promastigote form of Leishmania infantum MCAN_UY_2015_gCH2 isolate assessed as decrease in parasite viability measured after 72 hrs by resazurin assay"}, "Leishmania infantum [7]": {"test_system": "Leishmania infantum", "experiment": "Antileishmanial activity against amastigote form of Leishmania infantum MCAN_UY_2015_gCH2 isolate assessed as decrease in parasite viability measured after 72 hrs by resazurin assay", "format": "functional, organism-based"}, "Leishmania infantum [8]": {"test_system": "Leishmania infantum", "experiment": "Antileishmanial activity against amastigote form of Leishmania infantum MCAN_UY_2015_bPL7 isolate assessed as decrease in parasite viability measured after 72 hrs by resazurin assay", "format": "functional, organism-based"}, "Leishmania infantum [9]": {"test_system": "Leishmania infantum", "experiment": "Antileishmanial activity against amastigote form of Leishmania infantum MCAN_UY_2015_gPL8 isolate assessed as decrease in parasite viability measured after 72 hrs by resazurin assay", "format": "functional, organism-based"}, "Leishmania infantum [10]": {"test_system": "Leishmania infantum", "experiment": "Antileishmanial activity against amastigote form of Leishmania infantum MCAN_UY_2015_bCH11 isolate assessed as decrease in parasite viability measured after 72 hrs by resazurin assay", "format": "functional, organism-based"}, "Leishmania infantum [11]": {"test_system": "Leishmania infantum", "experiment": "Antileishmanial activity against amastigote form of Leishmania infantum MHOM/BR/2002/LPC-RPV assessed as decrease in parasite viability measured after 72 hrs by resazurin assay", "format": "functional, organism-based"}, "Leishmania infantum [12]": {"test_system": "Leishmania infantum", "experiment": "Antileishmanial activity against amastigote form of Leishmania infantum MCAN_UY_2015_mCO8 isolate assessed as decrease in parasite viability measured after 72 hrs by resazurin assay", "format": "functional, organism-based"}},
  "data": [
    {"compound": "C[C@@H]1[C@H](O)[C@@H](C)/C=C/C=C/C=C/C=C/C=C/C=C/C=C/[C@H](O[C@@H]2O[C@H](C)[C@@H](O)[C@H](N)[C@@H]2O)C[C@@H]2O[C@](O)(C[C@@H](O)C[C@@H](O)[C@H](O)CC[C@@H](O)C[C@@H](O)CC(=O)O[C@H]1C)C[C@H](O)[C@H]2C(=O)O", "note": "[AMPHOTERICIN B]", "values": [
      {"measurement": "IC50", "setting": "Leishmania infantum [1]", "value": 24.6, "unit": "µM"},
      {"measurement": "IC50", "setting": "Leishmania infantum [2]", "value": 24.9, "unit": "µM"},
      {"measurement": "IC50", "setting": "Leishmania infantum [3]", "value": 24.4, "unit": "µM"},
      {"measurement": "IC50", "setting": "Leishmania infantum [4]", "value": 12.7, "unit": "µM"},
      {"measurement": "IC50", "setting": "Leishmania infantum [5]", "value": 6.5, "unit": "µM"},
      {"measurement": "IC50", "setting": "Leishmania infantum [6]", "value": 24.8, "unit": "µM"}
    ]},
    {"compound": "CC[C@H](C)C(=O)O[C@H]1C[C@@H](C)C=C2C=C[C@H](C)[C@H](CC[C@@H]3C[C@@H](O)CC(=O)O3)[C@H]21", "note": "[LOVASTATIN]", "values": [
      {"measurement": "IC50", "setting": "Leishmania infantum [1]", "value": 25.3, "unit": "µM"},
      {"measurement": "IC50", "setting": "Leishmania infantum [2]", "value": 25.3, "unit": "µM"},
      {"measurement": "IC50", "setting": "Leishmania infantum [3]", "value": 25.4, "unit": "µM"},
      {"measurement": "IC50", "setting": "Leishmania infantum [4]", "value": 25.4, "unit": "µM"},
      {"measurement": "IC50", "setting": "Leishmania infantum [5]", "value": 12.9, "unit": "µM"},
      {"measurement": "IC50", "setting": "Leishmania infantum [6]", "value": 25.3, "unit": "µM"}
    ]},
    {"compound": "CCCCCCCCCCCCCCCCOP(=O)([O-])OCC[N+](C)(C)C", "note": "[MILTEFOSINE]", "values": [
      {"measurement": "IC50", "setting": "Leishmania infantum [1]", "value": 3.8, "unit": "µM"},
      {"measurement": "IC50", "setting": "Leishmania infantum [2]", "value": 3.6, "unit": "µM"},
      {"measurement": "IC50", "setting": "Leishmania infantum [3]", "value": 4.1, "unit": "µM"},
      {"measurement": "IC50", "setting": "Leishmania infantum [4]", "value": 3.4, "unit": "µM"},
      {"measurement": "IC50", "setting": "Leishmania infantum [5]", "value": 5.3, "unit": "µM"},
      {"measurement": "IC50", "setting": "Leishmania infantum [6]", "value": 4.1, "unit": "µM"}
    ]},
    {"compound": "CC1CS(=O)(=O)CCN1/N=C/c1ccc([N+](=O)[O-])o1", "note": "(stereo not given) [NIFURTIMOX]", "values": [
      {"measurement": "IC50", "setting": "Leishmania infantum [1]", "value": 6.5, "unit": "µM"},
      {"measurement": "IC50", "setting": "Leishmania infantum [2]", "value": 6.5, "unit": "µM"},
      {"measurement": "IC50", "setting": "Leishmania infantum [3]", "value": 6, "unit": "µM"},
      {"measurement": "IC50", "setting": "Leishmania infantum [4]", "value": 6.7, "unit": "µM"},
      {"measurement": "IC50", "setting": "Leishmania infantum [5]", "value": 6.3, "unit": "µM"},
      {"measurement": "IC50", "setting": "Leishmania infantum [6]", "value": 6.7, "unit": "µM"}
    ]},
    {"compound": "MEGLUMINE ANTIMONATE", "values": [
      {"measurement": "IC50", "setting": "Leishmania infantum [7]", "value": 50.4, "unit": "µM"},
      {"measurement": "IC50", "setting": "Leishmania infantum [8]", "value": 50.2, "unit": "µM"},
      {"measurement": "IC50", "setting": "Leishmania infantum [9]", "value": 50.1, "unit": "µM"},
      {"measurement": "IC50", "setting": "Leishmania infantum [10]", "value": 50.5, "unit": "µM"},
      {"measurement": "IC50", "setting": "Leishmania infantum [11]", "value": 50.1, "unit": "µM"},
      {"measurement": "IC50", "setting": "Leishmania infantum [12]", "value": 51, "unit": "µM"}
    ]}
  ]
}
